Test results: ChEMBL document CHEMBL4028801, “A multifactorial approach to hepatobiliary transporter assessment enables improved therapeutic compound development” (Toxicol Sci, 2013)
Counter-ions that a name gives are not always drawn.

What was measured:
[1] = molecular target: ATP-binding cassette sub-family C member 3 (Homo sapiens, UniProt O15438); experiment: Inhibition of human MRP3 overexpressed in Sf9 insect cell membrane vesicles assessed as uptake of [3H]-estradiol-17beta-D-glucuronide in presence of ATP and GSH measured after 10 mins by membrane vesicle transport assay; format: ADME, cell-based
[2] = molecular target: T1, ATP-binding cassette sub-family C member 4 (Homo sapiens, UniProt O15439); experiment: Inhibition of human MRP4 overexpressed in Sf9 cell membrane vesicles assessed as uptake of [3H]-estradiol-17beta-D-glucuronide in presence of ATP and GSH measured after 20 mins by membrane vesicle transport assay; format: ADME, cell-based
T1 sequence (O15439 whole entry): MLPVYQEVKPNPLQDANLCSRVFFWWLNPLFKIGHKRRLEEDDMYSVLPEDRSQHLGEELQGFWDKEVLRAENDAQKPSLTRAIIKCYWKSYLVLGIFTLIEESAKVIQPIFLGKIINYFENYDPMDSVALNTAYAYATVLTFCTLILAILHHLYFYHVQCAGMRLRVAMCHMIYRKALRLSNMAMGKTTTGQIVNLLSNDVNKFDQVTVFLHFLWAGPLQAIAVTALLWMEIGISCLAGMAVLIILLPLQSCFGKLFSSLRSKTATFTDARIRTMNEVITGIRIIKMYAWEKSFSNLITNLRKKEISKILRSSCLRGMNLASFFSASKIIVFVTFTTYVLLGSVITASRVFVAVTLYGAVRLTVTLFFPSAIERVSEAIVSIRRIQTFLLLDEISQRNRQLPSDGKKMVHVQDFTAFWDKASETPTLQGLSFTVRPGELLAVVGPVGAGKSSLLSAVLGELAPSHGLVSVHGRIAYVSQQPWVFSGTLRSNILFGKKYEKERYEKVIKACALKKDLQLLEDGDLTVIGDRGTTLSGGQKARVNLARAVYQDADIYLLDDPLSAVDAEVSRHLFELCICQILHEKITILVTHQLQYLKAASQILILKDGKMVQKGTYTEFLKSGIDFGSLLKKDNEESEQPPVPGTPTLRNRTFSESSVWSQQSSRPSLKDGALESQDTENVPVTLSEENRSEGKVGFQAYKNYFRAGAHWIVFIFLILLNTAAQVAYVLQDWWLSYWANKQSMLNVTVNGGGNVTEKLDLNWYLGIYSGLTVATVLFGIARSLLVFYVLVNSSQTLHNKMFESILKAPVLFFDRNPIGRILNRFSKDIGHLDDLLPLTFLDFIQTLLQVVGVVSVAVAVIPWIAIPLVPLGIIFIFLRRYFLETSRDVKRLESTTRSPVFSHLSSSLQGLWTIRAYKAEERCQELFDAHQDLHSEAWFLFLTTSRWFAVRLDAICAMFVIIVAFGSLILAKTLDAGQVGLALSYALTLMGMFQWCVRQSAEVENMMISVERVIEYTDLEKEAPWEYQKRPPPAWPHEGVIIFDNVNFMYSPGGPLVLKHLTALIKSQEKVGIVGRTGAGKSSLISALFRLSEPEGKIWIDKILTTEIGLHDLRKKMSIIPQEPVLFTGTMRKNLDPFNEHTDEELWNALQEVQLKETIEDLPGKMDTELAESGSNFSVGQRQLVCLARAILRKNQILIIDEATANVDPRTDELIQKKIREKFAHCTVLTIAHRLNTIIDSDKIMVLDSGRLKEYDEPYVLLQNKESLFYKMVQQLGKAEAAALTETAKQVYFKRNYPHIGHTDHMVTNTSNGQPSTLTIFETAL

Bile salt export pump = Bile salt export pump (Homo sapiens, UniProt O95342); experiment: Inhibition of human BSEP overexpressed in Sf9 cell membrane vesicles assessed as uptake of [3H]-taurocholate in presence of ATP measured after 15 to 20 mins by membrane vesicle transport assay; format: ADME, cell-based
[3] = molecular target: ATP-binding cassette sub-family C member 2 (Homo sapiens, UniProt Q92887); experiment: Inhibition of human MRP2 overexpressed in Sf9 cell membrane vesicles assessed as uptake of [3H]-estradiol-17beta-D-glucuronide in presence of ATP and GSH measured after 20 mins by membrane vesicle transport assay
Chain of ATP-binding cassette sub-family C member 2 (Q92887 whole entry): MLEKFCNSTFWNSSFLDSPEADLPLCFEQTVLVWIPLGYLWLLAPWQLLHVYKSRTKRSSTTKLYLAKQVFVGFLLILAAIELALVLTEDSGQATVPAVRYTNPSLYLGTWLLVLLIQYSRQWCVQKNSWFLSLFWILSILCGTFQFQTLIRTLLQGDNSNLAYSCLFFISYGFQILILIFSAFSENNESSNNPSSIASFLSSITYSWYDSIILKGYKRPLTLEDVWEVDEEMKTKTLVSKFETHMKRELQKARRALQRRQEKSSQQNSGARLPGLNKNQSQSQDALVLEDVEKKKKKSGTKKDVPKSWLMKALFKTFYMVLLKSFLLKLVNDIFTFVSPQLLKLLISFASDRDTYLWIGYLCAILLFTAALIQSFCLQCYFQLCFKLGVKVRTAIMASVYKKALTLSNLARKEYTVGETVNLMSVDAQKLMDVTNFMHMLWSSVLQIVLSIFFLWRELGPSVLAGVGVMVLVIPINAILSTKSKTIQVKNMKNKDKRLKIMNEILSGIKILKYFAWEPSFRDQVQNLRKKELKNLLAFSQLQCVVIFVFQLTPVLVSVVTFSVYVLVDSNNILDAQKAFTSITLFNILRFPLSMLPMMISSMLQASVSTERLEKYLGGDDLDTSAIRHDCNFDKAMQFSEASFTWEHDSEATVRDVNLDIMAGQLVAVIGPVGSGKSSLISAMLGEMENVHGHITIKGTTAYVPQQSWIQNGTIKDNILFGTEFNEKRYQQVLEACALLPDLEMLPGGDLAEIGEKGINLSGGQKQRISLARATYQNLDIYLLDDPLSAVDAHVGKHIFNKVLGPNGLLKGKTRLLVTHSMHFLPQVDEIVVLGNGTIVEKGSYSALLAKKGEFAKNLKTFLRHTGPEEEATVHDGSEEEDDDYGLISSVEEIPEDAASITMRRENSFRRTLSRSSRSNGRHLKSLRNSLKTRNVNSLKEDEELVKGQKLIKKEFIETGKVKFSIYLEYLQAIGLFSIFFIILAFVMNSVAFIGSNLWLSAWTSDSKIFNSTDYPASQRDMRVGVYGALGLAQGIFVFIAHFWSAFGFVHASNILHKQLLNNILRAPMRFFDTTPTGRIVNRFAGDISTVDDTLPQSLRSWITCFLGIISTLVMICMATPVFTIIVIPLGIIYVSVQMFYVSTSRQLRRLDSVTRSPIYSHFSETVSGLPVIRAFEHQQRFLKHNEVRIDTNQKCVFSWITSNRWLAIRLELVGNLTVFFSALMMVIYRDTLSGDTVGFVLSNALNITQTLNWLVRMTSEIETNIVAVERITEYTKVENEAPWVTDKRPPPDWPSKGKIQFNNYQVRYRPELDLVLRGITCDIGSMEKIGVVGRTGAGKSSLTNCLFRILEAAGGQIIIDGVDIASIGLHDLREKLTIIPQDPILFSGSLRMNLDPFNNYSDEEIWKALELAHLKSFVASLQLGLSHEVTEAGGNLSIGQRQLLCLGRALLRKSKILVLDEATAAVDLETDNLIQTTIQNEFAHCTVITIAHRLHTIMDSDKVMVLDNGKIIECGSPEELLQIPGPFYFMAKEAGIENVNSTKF

Chain of Bile salt export pump (O95342 whole entry): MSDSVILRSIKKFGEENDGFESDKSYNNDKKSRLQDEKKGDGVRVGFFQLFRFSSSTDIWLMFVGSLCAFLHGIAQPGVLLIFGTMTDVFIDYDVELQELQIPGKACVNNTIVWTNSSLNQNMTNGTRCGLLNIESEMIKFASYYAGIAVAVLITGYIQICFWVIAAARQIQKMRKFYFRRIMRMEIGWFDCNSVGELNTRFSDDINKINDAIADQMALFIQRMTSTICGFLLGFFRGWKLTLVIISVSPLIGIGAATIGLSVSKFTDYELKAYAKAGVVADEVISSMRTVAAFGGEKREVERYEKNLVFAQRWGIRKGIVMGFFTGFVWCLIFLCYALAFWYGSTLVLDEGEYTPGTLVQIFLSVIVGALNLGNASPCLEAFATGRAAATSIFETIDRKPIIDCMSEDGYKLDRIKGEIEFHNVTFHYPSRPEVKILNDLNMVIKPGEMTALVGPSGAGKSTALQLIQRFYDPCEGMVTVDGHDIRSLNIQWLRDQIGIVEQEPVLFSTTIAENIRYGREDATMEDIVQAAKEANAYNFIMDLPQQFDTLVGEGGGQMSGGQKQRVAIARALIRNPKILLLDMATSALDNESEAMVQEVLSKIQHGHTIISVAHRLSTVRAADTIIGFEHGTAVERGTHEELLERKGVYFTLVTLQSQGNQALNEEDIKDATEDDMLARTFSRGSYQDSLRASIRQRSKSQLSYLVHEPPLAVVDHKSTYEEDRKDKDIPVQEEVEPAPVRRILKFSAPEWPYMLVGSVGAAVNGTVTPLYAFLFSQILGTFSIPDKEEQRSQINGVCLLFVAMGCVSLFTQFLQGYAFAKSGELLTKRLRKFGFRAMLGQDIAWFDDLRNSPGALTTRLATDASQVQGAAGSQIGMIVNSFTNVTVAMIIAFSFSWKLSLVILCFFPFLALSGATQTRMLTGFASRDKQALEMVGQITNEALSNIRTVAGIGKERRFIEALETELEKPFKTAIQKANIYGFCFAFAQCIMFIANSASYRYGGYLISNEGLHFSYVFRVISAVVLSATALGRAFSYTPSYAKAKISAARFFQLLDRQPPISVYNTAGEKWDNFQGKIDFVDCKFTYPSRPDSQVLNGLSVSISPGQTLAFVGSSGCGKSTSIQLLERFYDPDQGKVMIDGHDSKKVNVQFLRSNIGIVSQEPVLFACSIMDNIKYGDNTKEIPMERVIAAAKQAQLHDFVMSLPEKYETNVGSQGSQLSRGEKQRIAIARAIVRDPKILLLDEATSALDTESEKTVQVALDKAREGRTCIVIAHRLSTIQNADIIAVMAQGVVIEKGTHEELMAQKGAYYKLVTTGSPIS
Chain of ATP-binding cassette sub-family C member 3 (O15438 whole entry): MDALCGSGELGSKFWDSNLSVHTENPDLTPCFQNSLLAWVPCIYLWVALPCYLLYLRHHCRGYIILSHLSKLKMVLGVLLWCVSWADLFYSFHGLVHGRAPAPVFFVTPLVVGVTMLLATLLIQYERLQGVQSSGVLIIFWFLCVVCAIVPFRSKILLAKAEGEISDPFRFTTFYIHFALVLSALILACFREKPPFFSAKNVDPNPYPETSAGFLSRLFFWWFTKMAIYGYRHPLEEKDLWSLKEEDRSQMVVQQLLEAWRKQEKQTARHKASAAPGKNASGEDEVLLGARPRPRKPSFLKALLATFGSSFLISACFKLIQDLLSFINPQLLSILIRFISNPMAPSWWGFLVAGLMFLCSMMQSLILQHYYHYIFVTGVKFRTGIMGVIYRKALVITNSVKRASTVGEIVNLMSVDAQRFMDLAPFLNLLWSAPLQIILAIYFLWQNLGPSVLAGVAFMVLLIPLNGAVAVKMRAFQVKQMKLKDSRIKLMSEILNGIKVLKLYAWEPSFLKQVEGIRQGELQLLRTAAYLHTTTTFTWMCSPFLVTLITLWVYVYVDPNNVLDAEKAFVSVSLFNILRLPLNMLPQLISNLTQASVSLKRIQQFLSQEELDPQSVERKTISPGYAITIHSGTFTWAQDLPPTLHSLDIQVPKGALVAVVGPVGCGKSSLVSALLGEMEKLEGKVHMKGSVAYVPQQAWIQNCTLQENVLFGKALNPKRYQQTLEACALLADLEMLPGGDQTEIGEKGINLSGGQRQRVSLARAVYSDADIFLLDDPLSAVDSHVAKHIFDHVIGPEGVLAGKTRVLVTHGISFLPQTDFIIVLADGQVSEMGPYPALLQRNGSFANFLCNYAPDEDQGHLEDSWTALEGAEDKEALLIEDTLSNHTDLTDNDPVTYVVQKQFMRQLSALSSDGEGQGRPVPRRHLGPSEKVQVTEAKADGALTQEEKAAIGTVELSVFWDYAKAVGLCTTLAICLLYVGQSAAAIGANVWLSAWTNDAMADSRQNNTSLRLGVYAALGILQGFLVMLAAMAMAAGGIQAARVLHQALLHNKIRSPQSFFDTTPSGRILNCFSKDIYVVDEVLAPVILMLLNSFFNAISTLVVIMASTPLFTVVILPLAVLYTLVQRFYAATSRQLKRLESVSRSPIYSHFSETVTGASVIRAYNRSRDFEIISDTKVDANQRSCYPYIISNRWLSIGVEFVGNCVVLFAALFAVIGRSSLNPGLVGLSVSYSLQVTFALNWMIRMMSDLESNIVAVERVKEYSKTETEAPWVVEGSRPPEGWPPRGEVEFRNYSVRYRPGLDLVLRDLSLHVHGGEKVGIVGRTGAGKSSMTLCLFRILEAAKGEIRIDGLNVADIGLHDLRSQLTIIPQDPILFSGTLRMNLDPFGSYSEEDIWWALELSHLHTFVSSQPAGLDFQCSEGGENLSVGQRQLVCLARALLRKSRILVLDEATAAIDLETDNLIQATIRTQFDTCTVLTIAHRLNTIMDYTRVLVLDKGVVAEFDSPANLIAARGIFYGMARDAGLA

| Structure (SMILES) | IC50 [1] | IC50 [2] | IC50 (Bile salt export pump) | IC50 [3] |
| --- | --- | --- | --- | --- |
| CCCCC[C@H](O)/C=C/[C@@H]1[C@@H](C/C=C\CCCC(=O)O)[C@@H](O)C[C@H]1O [DINOPROST TROMETHAMINE] | […] | 7.1 µM | […] | […] |
| C/C(=C\C(=O)OCCCCCCCCC(=O)O)C[C@@H]1OC[C@H](C[C@@H]2O[C@H]2[C@@H](C)[C@H](C)O)[C@@H](O)[C@H]1O [MUPIROCIN] | > 133 µM | > 133 µM | > 133 µM | > 133 µM |
| CNS(=O)(=O)Cc1ccc2[nH]cc(CCN(C)C)c2c1 | > 133 µM | > 133 µM | > 133 µM | > 133 µM |
| CN(C)CCc1c[nH]c2ccc(C[C@H]3COC(=O)N3)cc12 [ZOLMITRIPTAN] | > 133 µM | > 133 µM | > 133 µM | > 133 µM |
| C=C1CC[C@H](O)C/C1=C/C=C1\CCC[C@]2(C)[C@@H]([C@H](C)/C=C/[C@H](C)C(C)C)CC[C@@H]12 [ERGOCALCIFEROL] | > 133 µM | > 133 µM | 75.8 µM | > 133 µM |
| CN1CCC(=C2c3ccccc3CC(=O)c3sccc32)CC1 [KETOTIFEN FUMARATE] | > 133 µM | > 133 µM | > 133 µM | > 133 µM |
| CN(C)CCC(c1ccc(Cl)cc1)c1ccccn1 (stereo unspecified) [CHLORPHENIRAMINE] | > 133 µM | > 133 µM | > 133 µM | > 133 µM |
| CNCCC=C1c2ccccc2CCc2ccccc21 [NORTRIPTYLINE] | > 133 µM | > 133 µM | > 133 µM | > 133 µM |
| CCCN(CCC)S(=O)(=O)c1ccc(C(=O)O)cc1 [PROBENECID] | > 133 µM | > 133 µM | > 133 µM | > 133 µM |
| C[C@]12CC[C@H](O)CC1=CC[C@@H]1[C@@H]2CC[C@]2(C)C(c3cccnc3)=CC[C@@H]12 [ABIRATERONE] | > 133 µM | > 133 µM | > 133 µM | > 133 µM |
| CSc1ccc(C(=O)c2[nH]c(=O)[nH]c2C)cc1 [ENOXIMONE] | > 133 µM | > 133 µM | > 133 µM | > 133 µM |
| CCn1cc(C(=O)O)c(=O)c2ccc(C)nc21 [NALIDIXIC ACID] | > 133 µM | 57.5 µM | > 133 µM | > 133 µM |
| CN(C)c1cc(NC(=O)CNC(C)(C)C)c(O)c2c1C[C@H]1C[C@H]3[C@H](N(C)C)C(O)=C(C(N)=O)C(=O)[C@@]3(O)C(O)=C1C2=O [TIGECYCLINE] | > 133 µM | > 133 µM | > 133 µM | > 133 µM |
| CC(C)C(=O)OCC(=O)[C@@]12O[C@H](C3CCCCC3)O[C@@H]1C[C@H]1[C@@H]3CCC4=CC(=O)C=C[C@]4(C)[C@H]3[C@@H](O)C[C@@]12C [CICLESONIDE] | > 133 µM | > 133 µM | > 133 µM | > 133 µM |
| CC(C)(C)c1ccc(C(O)CCCN2CCC(C(O)(c3ccccc3)c3ccccc3)CC2)cc1 (stereo unspecified) [TERFENADINE] | > 133 µM | > 133 µM | > 133 µM | > 133 µM |
| CCC1(c2ccc(N)cc2)CCC(=O)NC1=O (stereo unspecified) [AMINOGLUTETHIMIDE] | > 133 µM | > 133 µM | > 133 µM | > 133 µM |
| C[C@H]1O[C@H](O[C@H]2[C@H](O)[C@@H](O)[C@@H](O[C@H]3[C@H](O)[C@@H](O)C(O)O[C@@H]3CO)O[C@@H]2CO)[C@H](O)[C@@H](O)[C@@H]1N[C@H]1C=C(CO)[C@@H](O)[C@H](O)[C@H]1O (stereo partly specified) [ACARBOSE] | > 133 µM | > 133 µM | > 133 µM | > 133 µM |
| c1cnc(N2CCN(Cc3ccc4c(c3)OCO4)CC2)nc1 [PIRIBEDIL] | > 133 µM | > 133 µM | > 133 µM | > 133 µM |
| C[C@H]1CN(C[C@H](Cc2ccccc2)C(=O)NCC(=O)O)CC[C@@]1(C)c1cccc(O)c1 [ALVIMOPAN] | > 133 µM | > 133 µM | > 133 µM | > 133 µM |
